Reference: PMC4306314, “Differential neuroprotective potential of CRMP2 peptide aptamers conjugated to cationic, hydrophobic, and amphipathic cell penetrating peptides” (Frontiers in Cellular Neuroscience, 2015)
Read-outs that look alike come from different tables or passages of the source. Where no end group is shown, it is not given here.

Legend:
CRMP2-NR2B interaction = target: T1, CRMP2-NR2B interaction (Rattus norvegicus, UniProt Q00960); assay: Co-immunoprecipitation of NR2B with CRMP2 from rat brain lysates; assay type: binding; conditions: 10 µM peptide, overnight 4°C, rat brain lysate, immunoblot, n = 4
T1 construct: Rat brains were lysed into the immunoprecipitation buffer; from tissue; host or cells: rat brain
T1 sequence (Q00960 27-1482, other chains not shown): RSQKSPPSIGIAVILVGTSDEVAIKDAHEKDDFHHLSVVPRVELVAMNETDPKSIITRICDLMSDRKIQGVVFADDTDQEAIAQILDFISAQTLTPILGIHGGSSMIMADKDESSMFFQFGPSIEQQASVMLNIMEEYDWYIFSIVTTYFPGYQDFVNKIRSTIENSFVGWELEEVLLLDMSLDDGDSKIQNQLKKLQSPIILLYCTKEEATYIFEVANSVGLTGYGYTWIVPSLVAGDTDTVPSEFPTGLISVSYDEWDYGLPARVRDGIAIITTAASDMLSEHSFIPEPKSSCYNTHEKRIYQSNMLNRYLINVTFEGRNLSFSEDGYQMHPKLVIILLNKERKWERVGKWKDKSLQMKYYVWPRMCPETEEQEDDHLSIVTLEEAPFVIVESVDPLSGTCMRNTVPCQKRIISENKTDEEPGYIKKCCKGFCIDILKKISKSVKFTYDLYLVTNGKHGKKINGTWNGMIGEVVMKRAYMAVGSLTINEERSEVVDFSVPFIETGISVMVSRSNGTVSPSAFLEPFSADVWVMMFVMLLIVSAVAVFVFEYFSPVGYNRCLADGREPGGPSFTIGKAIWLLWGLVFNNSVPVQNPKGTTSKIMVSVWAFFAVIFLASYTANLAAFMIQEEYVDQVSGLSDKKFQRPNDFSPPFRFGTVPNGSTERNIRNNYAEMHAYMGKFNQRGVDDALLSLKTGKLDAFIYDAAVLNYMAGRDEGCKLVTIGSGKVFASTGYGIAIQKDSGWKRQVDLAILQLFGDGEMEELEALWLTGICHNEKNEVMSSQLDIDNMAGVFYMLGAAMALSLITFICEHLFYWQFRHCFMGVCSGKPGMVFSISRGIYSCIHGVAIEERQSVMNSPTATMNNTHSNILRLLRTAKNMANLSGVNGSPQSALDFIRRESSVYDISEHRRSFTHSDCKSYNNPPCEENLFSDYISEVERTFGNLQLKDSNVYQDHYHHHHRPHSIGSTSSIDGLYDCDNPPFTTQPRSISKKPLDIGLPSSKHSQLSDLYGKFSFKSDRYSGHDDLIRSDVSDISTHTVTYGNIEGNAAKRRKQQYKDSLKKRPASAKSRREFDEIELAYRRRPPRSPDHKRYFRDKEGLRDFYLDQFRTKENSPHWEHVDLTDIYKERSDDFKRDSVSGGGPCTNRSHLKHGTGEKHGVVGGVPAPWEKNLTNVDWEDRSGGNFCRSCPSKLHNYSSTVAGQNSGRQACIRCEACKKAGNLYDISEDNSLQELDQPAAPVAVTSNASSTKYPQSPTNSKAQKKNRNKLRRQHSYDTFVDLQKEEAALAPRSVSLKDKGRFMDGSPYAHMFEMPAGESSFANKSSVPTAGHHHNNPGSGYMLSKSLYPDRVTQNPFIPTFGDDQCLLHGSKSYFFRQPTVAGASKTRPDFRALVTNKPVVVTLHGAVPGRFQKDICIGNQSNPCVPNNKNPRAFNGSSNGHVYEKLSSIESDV
Method: Rat brains were lysed into the immunoprecipitation buffer containing 20 mM Tris-HCl pH 7.4, 50 mM NaCl, 2 mM MgCl2, 1% (vol/vol) NP40, 0.5% (mass/vol) sodium deoxycholate with Protease/phosphatase inhibitors cocktails (Calbiochem) and Benzonase (50 U/mL^−1), using a dounce homogenizer. The lysates were clarified by centrifugation at 10000 g, 10 min, 4°C then total protein concentration was determined by BCA protein assay (Cat# PI23225, Thermo scientific). For the co-immunoprecipitation, 300 µg of total protein was incubated with 1 µg of CRMP2 antibody (Cat# C2993, Sigma, St. Louis, MO, USA) of non-specific rabbit IgG, in the presence of 10 µM of the indicated peptides and incubated overnight at 4°C under gentle agitation. Protein G magnetic beads (Cat# 10004D, Life Technologies) pre-equilibrated with the immunoprecipitation buffer, were added to the mixture and allowed to incubate for 1 h at 4°C to capture the immuno-complexes. The beads were washed four times with the immunoprecipitation buffer before re-suspension in Laemmli buffer and boiling at 95°C for 5 min prior to immunoblotting.
Indicated samples were loaded on 4–12% NuPAGE® gels (Life Technologies). […] Films were scanned, and quantified using Un-Scan-It gel version 6.1 scanning software (Silk Scientific Inc, Orem, UT, USA).

[1] = of the CPP itself; ref Sarko et al., 2010; cited from earlier work
[2] = tested on: GPMVs derived from cortical neurons; assay: Peptide penetration into giant plasma membrane vesicles (GPMVs), di-4-ANEPPDHQ staining; assay type: in vitro ADME, rat; conditions: 10 µM peptide; for Change in percent of GPMVs with intracellular staining, vesicles from Glu/Gly-challenged vs unchallenged cells: neurons challenged 1 h with 200 µM glutamate + 20 µM glycine before vesiculation
Method: Giant plasma membrane vesicles (GPMVs) were obtained as previously described in Sezgin et al. ([2012]). Briefly, GPMVs were generated from cortical neurons incubated at 37°C for 90 min in a vesiculation buffer containing 10 mM HEPES, 150 mM NaCl, 2 mM CaCl2, pH 7.4 containing 2 mM N-ethyl maleimide (NEM). After GPMV formation, the buffer containing vesicles was recovered and conserved at 4°C for at least 2 h to allow the vesicles to concentrate at the bottom of the tube. As the GPMVs were stable for ~48 h (data not shown), they were used the day after formation at the latest.
All experiments for microscopic analyses of GPMVs were performed on 35 mm glass bottom dishes pre-coated with BSA (1 mg/mL for 1 h at room temperature). Approximately 100 µL of GMPVs labeled with 5 µM di-4-ANEPPDHQ were incubated for 3 h at room temperature with 10 µM of CBD3 peptide aptamers. di-4-ANEPPDHQ, a styryl dye that was originally developed to detect transmembrane potential changes, is considered to be a good probe for rafts (Jin et al., [2005]) and was used to label GPMVs. di-4-ANEPPDHQ is able to partition into both liquid-ordered and liquid-disordered phase domains in model membranes, reacts to the environmental difference between the two phases via conformational changes, thus resulting in different fluorescence properties (Jin et al., [2005]). Here, we studied the 500–550 nm emission of the probe, which accounts largely for the liquid ordered phase.
Fluorescence imaging was performed with an inverted microscope, Nikon Eclipse TE2000-U, using objective Nikon Super Fluor 20× 0.75 NA and a Photometrics cooled CCD camera CoolSNAPHQ-ES2 (Roper Scientific, Tucson, AZ, USA) controlled by MetaFluor 6.3 software (Molecular Devices, Downingtown, PA, USA). […] Twenty images of each condition were systematically recorded randomly, using a FITC filter (excitation and emission wavelength 488 nm and 500–550 nm, respectively), which accounted for the liquid ordered contribution of di-4-ANEPPDHQ or the localization of FITC-peptides.

cortical neurons [3] = assay: Uptake and efflux of FITC-labeled CBD3 peptides from cortical neurons; assay type: in vitro ADME, rat; conditions: for Cumulative efflux (AUC), glutamate-challenged vs unchallenged cells, long-term application: chronic peptide treatment, media sampled up to 3 h
Method: Cortical neurons were seeded into 96-well plates at 3.5 × 10^4 cells per well and cultured until 7 DIV at 37°C and 5% CO2. […] After four washes with phenol red free Leibovitz medium, the FITC fluorescence in the cells was measured using a Synergy 2 fluorescent plate reader (Biotek, Winooski, VT, USA) at an excitation wavelength of 485 nm and emission wavelength of 530 nm. […] To correct for any differences in cell plating, at the end of the experiment cortical neurons were lysed with 20 mM Tris, pH 7.4, 50 mM NaCl, 1% NP40, 0.5% sodium deoxycholate, 0.1% SDS Protease inhibitor cocktail set III (Calbiochem), phosphatase inhibitor cocktail set I (Calbiochem), 50 U/ml benzonase (Merck) and the protein quantity determined with a Pierce assay.

cortical neurons [4] = assay: Glutamate-induced toxicity, chromogenic cell viability assay; assay type: cell-based, rat; conditions: for Prevention of Glu/Gly-induced neuronal cell death by NMDAR subunit blockers: Ifenprodil 1 µM, Peaqx 5 µM, 10 min before and during 200 µM glutamate/20 µM glycine 30 min, 7 DIV, viability 24 h later, 32 wells
Method: E19 neurons (grown in 96 well plates) were stimulated with 200 µM glutamate/20 µM glycine to induce neuronal death as previously described with modifications (Brittain et al., [2011a]). Neurons were pre-treated with peptides by removing half of the culture medium and replacing with fresh medium containing twice the final concentration of peptide. Neurons were then stimulated by removing half the medium and replacing with fresh medium containing 400 µM glutamate/40 µM glycine and 1X peptide concentration. Following a 30 min stimulation the medium was completely removed and replaced with half fresh/half conditioned medium. Cell viability was quantified 24 h later using the 3-(4,5-dimethylthiazol-2-yl)-5-(3-carboxymethoxyphenyl)-2-(4-sulfophenyl)-2H-tetrazolium cell viability assay (Promega, Madison, WI, USA) as previously described (Brittain et al., [2011a]). Subunit-specific NMDAR antagonists Peaqx (NR2A) and Ifenprodil (NR2B) were purchased from Sigma.

[5] = parameters: method as in Wender et al., 2000; conditions: ref Wender et al., 2000; cited from earlier work

In the case of “KLALKLALKALKAALKLAARSRLAELRGVPRGL [MAP-CBD3]”, the “Inhibition of NR2B-CRMP2 interaction relative to no peptide control” value (CRMP2-NR2B interaction) is reported as ~ 60%.

In the case of AAVALLPAVLLALLAP [MTS], the “Half-life (t1/2)” value [1] is listed as ~ 48 h.

With YGRKKRRQRRRARSRLAELRGVPRGL [TAT-CBD3] the “Percent of GPMVs exhibiting lumenal accumulation of smaller vesicles” value ([2]; GPMVs from control (untreated) cortical neurons, 5 µM di-4-ANEPPDHQ, room temperature, 3 h (methods) or 60 min, fluorescence microscopy, n = 2 experiments) was ~ 54%, the “Change in percent of GPMVs with intracellular staining, vesicles from Glu/Gly-challenged vs unchallenged cells” value [2] was “did not alter” and the “Efflux fluorescence compared to MTS-CBD3-treated cells, long-term application” value (cortical neurons [3]; 1, 2 and 3 h post peptide application, irrespective of excitotoxic challenge) was “lower”. The “Cumulative efflux (AUC), glutamate-challenged vs unchallenged cells, long-term application” value (cortical neurons [3]) was “indistinguishable” and the IC50 (cortical neurons [4]; concentration-response viability curve, four-parameter fit, variable Hill slope, 32 wells from two experiments, extrapolated, read-out: IC50 for inhibition of glutamate-mediated toxicity) was 3.2 µM.

For RRRRRRRRR [R9, nona-arginine], the “Penetration compared to TAT” value [5] is listed as “greater than 20 fold” and the “Half-life (t1/2)” value [1] is listed as ~ 2 h.

In the case of YGRKKRRQRRR [TAT], the “Half-life (t1/2)” value [1] is given as ~ 9 h.

In the case of KLALKLALKALKAALKLA [MAP], the “Half-life (t1/2)” value [1] is given as over 72 h.

For `CC(C(O)c1ccc(O)cc1)N1CCC(Cc2ccccc2)CC1` (centres unmarked) [Ifenprodil, reference compound], the “Prevention of Glu/Gly-induced neuronal cell death by NMDAR subunit blockers” value (cortical neurons [4]) was “completely prevent”.

With “AAVALLPAVLLALLAPARSRLAELRGVPRGL [MTS-CBD3]” the “Change in percent of GPMVs with intracellular staining, vesicles from Glu/Gly-challenged vs unchallenged cells” value [2] was “did not alter” and the “Cumulative efflux (AUC), glutamate-challenged vs unchallenged cells, long-term application” value (cortical neurons [3]) was ~ 24%.

In the case of RRRRRRRRRARSRLAELRGVPRGL [R9-CBD3], the “Inhibition of NR2B-CRMP2 interaction relative to no peptide control” value (CRMP2-NR2B interaction) is reported as ~ 80% and the IC50 (cortical neurons [4]; 24 h) is reported as about 0.564 µM.

With `C[C@H](NC(c1cccc2[nH]c(=O)c(=O)[nH]c12)P(=O)(O)O)c1ccc(Br)cc1` (some centres unmarked) [Peaqx, reference compound] the “Prevention of Glu/Gly-induced neuronal cell death by NMDAR subunit blockers” value (cortical neurons [4]) was “not”.
